Experimental data published in patent US7645463B2, “Method for treating diabetic vascular complications” (National Yang-Ming University, priority 2006, dated 2010).
Marks after values point to notes of the source that are not given here.

Tested on: Mouse Kupffer cell
Experiment: Phagocytosis assay of Kupffer cell (FITC-beads ingestion)
Assay type: cell-based
Conditions: relative to control (2% FCS) = 1
Procedure: C57BL6/j mice were intraperitoneally (ip) injected with a mixture of Rompun® xylazine anesthesia and ketamin (S-(+)-ketamine) anesthesia mixed at a ratio of 1:3. The central vein of each mouse was cannulated with a polyethylene catheter, and the liver tissue was perfused with 10 ml Ca^2+-free HBSS buffer for 10 minutes at a perfusion rate of 1 ml/min, and HBSS buffer containing 0.05% collagenase type IV for 10 minutes at the perfusion rate of 1 mL/min to soften the liver tissue. The softened liver tissue was excised, rinsed and cut open by a pair of forceps to release cell suspension from the liver tissue. After the connective tissue was detached, the cell suspension was filtered with a #53 nylon mesh and centrifuged at 30 g for 3 minutes. The cell suspension was then centrifuged at 600 g for 5 minutes. The supernatant was discarded and the cell pellet was resuspended in 15 mL RBC lysis buffer and allowed a reaction to take place for 2 minutes. The cell suspension was added with 15 mL of RPMI 1640 medium and centrifuged, and the cell pellet was resuspended in 5 mL of RPMI 1640 medium and layered on top of a Percoll™ solution consisting of 25% (v/v) Percoll™ density gradient medium. The cell solution was centrifuged, and the cell pellet containing enriched Kupffer cells was collected. The enriched Kupffer cells were washed with RPMI 1640 medium and resuspended in serum-free RPMI 1640 medium.
Kupffer cells were seeded (4×10^5 cells/well) in a 96-well culture plate and cultured in RPMI medium supplemented with 10% FCS, also known as 10% FCS RPMI medium hereinafter, for at least 24 hours. The medium was changed to 2% FCS RPMI medium added with PH of different concentrations (1000 μg/mL, 100 μg/mL, 10 μg/mL and 1 μg/mL). […] FluoroQuench™ dye (0.5 μL/well) was added to quench the fluorescence from the […] 1 μm-sized FITC-beads. The fluorescence of the ingested 1 μm-sized FITC-beads was measured with a cytofluorometer after one hour and normalized with the fluorescence of the control group to determine the relative phagocytosis index as shown in Table 2.

Substance: tuftsin
- Mouse Kupffer cell Ingestion phagocytosis Index (1 μg/ml): 1.49**
- Mouse Kupffer cell Ingestion phagocytosis Index (10 μg/ml): 1.2*
- Mouse Kupffer cell Ingestion phagocytosis Index (100 μg/ml): 1.01
